Patent US9113629B2, “4-amino-6-(4-substituted-phenyl)-picolinates and 6-amino-2-(4-substituted-phenyl)-pyrimidine-4-carboxylates and their use as herbicides” (DOW AGROSCIENCES LLC, priority 2013, dated 2015)
Read-outs that look alike come from different tables or passages of the source.

Assays:
[1] = tested on: Key Grass and Sedge Weeds as well as Grass Crops; experiment: Post-emergent Test II herbicidal activity (Table 6); assay type: in vivo; conditions: post-emergence, 336 h; for pest or weed control at 70 g/ha: application rate 70 g ai/ha; for pest or weed control at 140 g/ha: application rate 140 g ai/ha
Summary of the method: (§1)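 Greenhouse post-emergent assay: seedlings (first/second true leaf) in Metro-Mix 360 were sprayed at 187 L/ha at a top rate plus twofold dilutions down to 1/16×; solvent-blank controls were included. Percent visual injury was read at 14 d.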

[2] = tested on: Key Broadleaf Weed and Crop Species; experiment: Post-emergent Test II herbicidal activity (Table 5); assay type: in vivo; conditions: post-emergence, 336 h, post-emergent, 14 days after application; for pest or weed control at 70 g/ha: 70 g ai/ha; for pest or weed control at 140 g/ha: 140 g ai/ha
Summary of the method: as §1

[3] = Triticum aestivum, TRZSS (wheat), read-out: Visual Growth Reduction (%) 14 Days After Application, TRZSS
[4] = CYPES: yellow nutsedge (Cyperus esculentus), read-out: Visual Growth Reduction (%) 14 Days After Application, CYPES
[5] = DIGSA: crabgrass (Digitaria sanguinalis), read-out: Visual Growth Reduction (%) 14 Days After Application, DIGSA
[6] = ECHCG: barnyardgrass (Echinochloa crus-galli), read-out: Visual Growth Reduction (%) 14 Days After Application, ECHCG
[7] = ORYSA: rice (Oryza sativa), read-out: Visual Growth Reduction (%) 14 Days After Application, ORYSA
[8] = SETFA: giant foxtail (Setaria faberi), read-out: Visual Growth Reduction (%) 14 Days After Application, SETFA
[9] = SORVU: grain sorghum (Sorghum vulgare), read-out: Visual Growth Reduction (%) 14 Days After Application, SORVU
[10] = ZEAMX: maize, corn (Zea mays), read-out: Visual Growth Reduction (%) 14 Days After Application, ZEAMX
[11] = ABUTH: velvetleaf (Abutilon theophrasti), read-out: Visual Growth Reduction (%) 14 Days After Application ABUTH
[12] = AMARE: redroot pigweed (Amaranthus retroflexus), read-out: Visual Growth Reduction (%) 14 Days After Application AMARE
[13] = BRSNN: oilseed-rape, canola (Brassica napus), read-out: Visual Growth Reduction (%) 14 Days After Application BRSNN
[14] = CHEAL: lambsquarters (Chenopodium album), read-out: Visual Growth Reduction (%) 14 Days After Application CHEAL
[15] = EPHHL: wild poinsettia (Euphorbia heterophylla), read-out: Visual Growth Reduction (%) 14 Days After Application EPHHL
[16] = HELAN: sunflower (Helianthus annuus), read-out: Visual Growth Reduction (%) 14 Days After Application HELAN
[17] = VIOTR: wild pansy (Viola tricolor), read-out: Visual Growth Reduction (%) 14 Days After Application VIOTR

COC(=O)c1nc(-c2ccc(Br)c(F)c2)c(C)c(N)c1Cl [Compound 112, Methyl 4-amino-6-(4-bromo-3-fluorophenyl)-3-chloro-5-methylpicolinate]
60 to 74%: pest or weed control at 140 g/ha [1, 3] | pest or weed control at 70 g/ha [1, 5] | pest or weed control at 140 g/ha [1, 5] | pest or weed control at 70 g/ha [1, 6] | pest or weed control at 140 g/ha [1, 6] | pest or weed control at 70 g/ha [1, 10] | pest or weed control at 140 g/ha [1, 10]
95 to 100%: pest or weed control at 70 g/ha [1, 4] | pest or weed control at 140 g/ha [1, 4] | pest or weed control at 140 g/ha [1, 8] | pest or weed control at 70 g/ha [2, 11] | pest or weed control at 140 g/ha [2, 11] | pest or weed control at 70 g/ha [2, 12] | pest or weed control at 140 g/ha [2, 12] | pest or weed control at 70 g/ha [2, 16] | pest or weed control at 140 g/ha [2, 16]
45 to 59%: pest or weed control at 70 g/ha [1, 3]
134 to 137 °C: melting point
85 to 94%: pest or weed control at 70 g/ha [1, 8] | pest or weed control at 70 g/ha [1, 9] | pest or weed control at 140 g/ha [1, 9] | pest or weed control at 70 g/ha [2, 13] | pest or weed control at 140 g/ha [2, 13] | pest or weed control at 70 g/ha [2, 14] | pest or weed control at 140 g/ha [2, 14]
0 to 29%: pest or weed control at 70 g/ha [1, 7] | pest or weed control at 140 g/ha [1, 7] | pest or weed control at 70 g/ha [2, 15] | pest or weed control at 140 g/ha [2, 15] | pest or weed control at 70 g/ha [2, 17] | pest or weed control at 140 g/ha [2, 17]

Cc1c(-c2ccc(Br)cc2)nc(C(=O)O)c(Cl)c1N [Compound 78, 4-Amino-6-(4-bromophenyl)-3-chloro-5-methylpicolinic acid]
30 to 44%: pest or weed control at 140 g/ha [1, 10]
185.5 to 187 °C: melting point
0 to 29%: pest or weed control at 70 g/ha [1, 4] | pest or weed control at 70 g/ha [1, 5] | pest or weed control at 140 g/ha [1, 5] | pest or weed control at 70 g/ha [1, 6] | pest or weed control at 140 g/ha [1, 6] | pest or weed control at 70 g/ha [1, 7] | pest or weed control at 140 g/ha [1, 7] | pest or weed control at 70 g/ha [1, 9] | pest or weed control at 140 g/ha [1, 9] | pest or weed control at 70 g/ha [1, 10] | pest or weed control at 70 g/ha [2, 15] | pest or weed control at 140 g/ha [2, 15] | pest or weed control at 70 g/ha [2, 17] | pest or weed control at 140 g/ha [2, 17]
85 to 94%: pest or weed control at 70 g/ha [2, 12] | pest or weed control at 70 g/ha [2, 13] | pest or weed control at 70 g/ha [2, 14] | pest or weed control at 140 g/ha [2, 14]
60 to 74%: pest or weed control at 140 g/ha [1, 8]
45 to 59%: pest or weed control at 70 g/ha [1, 3] | pest or weed control at 140 g/ha [1, 3] | pest or weed control at 70 g/ha [1, 8]
95 to 100%: pest or weed control at 140 g/ha [1, 4] | pest or weed control at 70 g/ha [2, 11] | pest or weed control at 140 g/ha [2, 11] | pest or weed control at 140 g/ha [2, 12] | pest or weed control at 140 g/ha [2, 13] | pest or weed control at 70 g/ha [2, 16] | pest or weed control at 140 g/ha [2, 16]
